Results as given in patent US7371734B2, “Oligonucleotide compositions and their use for the modulation of immune responses” (Bioniche Life Sciences Inc., priority 2002, dated 2008).
Marks after values point to notes of the source that are not given here.

Legend:
Assay type in all cases: cell-based
Human dendritic cells [1] = experiment: Increase in cell size and granularity of DC (flow cytometry); settings: 100 μg polynucleotide, 48 hours
How it was run: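 Human dendritic cells from three donors, seeded at 1.0×10^5 cells/ml and exposed 48 hours to 100 μg of 6-base 3-OH, 5-OH polynucleotides. Flow cytometry; percentage of cells with forward scatter >500 units and side scatter >400 units.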

Human dendritic cells [2] = experiment: Induction of IL-12 production by DC (ELISA); settings: 100 μg, 48 hours
How it was run: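 Human DCs from three donors, 1.0×10^5 cells/ml, exposed 48 h to 100 μg of 6-base polynucleotides. IL-12 in culture supernatant measured by ELISA. Values given as fold increase over untreated control cells.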

Human dendritic cells [3] = experiment: Induction of IFN-gamma production by DC (ELISA); settings: 100 μg, 48 hours
How it was run: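 Dendritic cells from three donors (1.0×10^5 cells/ml) were incubated 48 h with 100 μg of each polynucleotide. IFN-gamma in culture supernatant was measured by ELISA. Values are fold increase over untreated control cells.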

Human dendritic cells [4] = experiment: CD40 levels at the DC cell surface (flow cytometry); settings: 100 μg, 48 hours
How it was run: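 DCs from two donors, seeded at 1.0×10^5 cells/ml, were exposed for 48 h to 100 μg of 6-base polynucleotides. Surface CD40 was then measured by flow cytometry with a FITC anti-CD40 mAb. Values are the percentage of CD40^hi DC, meaning above-baseline CD40 expression.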

Human dendritic cells [5] = experiment: CD80 levels at the DC cell surface (flow cytometry); settings: 100 μg, 48 hours
How it was run: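 Human dendritic cells from two donors, at 1.0×10^5 cells/ml, were exposed 48 h to 100 μg of 6-base polynucleotides. Surface CD80 was measured by flow cytometry with a FITC anti-CD80 antibody. Values are % CD80^hi DC.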

Human dendritic cells [6] = experiment: CD86 levels at the DC cell surface (flow cytometry); settings: 100 μg, 48 hours
How it was run: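 Human DCs (from donors B and C) at 1.0×10^5 cells/ml were exposed 48 h to 100 μg of 6-base polynucleotides. Surface CD86 was measured by flow cytometry with a PE-conjugated anti-CD86 mAb. Values are % CD86^hi DC after treatment.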

Human dendritic cells [7] = experiment: MHC-II levels at the DC cell surface (flow cytometry); settings: DC from individual B; 100 μg, 48 hours
How it was run: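 Dendritic cells from one donor were seeded at 1.0×10^5 cells/ml and treated for 48 h with 100 μg of 6-base polynucleotides. Surface MHC II was then measured by flow cytometry with a FITC-conjugated anti-MHC II antibody. Values are the percentage of MHC II^hi DC.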

Human dendritic cells [8] = experiment: Endocytosis of FITC-dextran by DC; settings: DC from individual B, 100 μg, 24 hours, untreated control = 100
Procedure: Human dendritic cells were obtained from Clonetics (San Diego, Calif., USA) and were cultured in the medium recommended by Clonetics. DC were obtained from three different individuals (see Table 1). Major histocompatability typing was performed on each of these individuals and several of the HLA (human leukocyte antigens) types are shown.
DC from individual B were seeded in 1.0 ml at 1.0×10^5 cells/ml in 6-well flat-bottomed tissue culture plates for 24 hours with 1 mg/ml of FITC-dextran (20 kDa; Sigma-Aldrich) in the absence or presence of 100 μg of 6 base N2A, N2B, N3A, N3B, N5A, N5B, and N6B polynucleotides at 4° C. (control cell surface binding of FITC-dextran) and 37° C. (to assess endocytosis). Cells were washed three times with ice-cold phosphate buffered saline and analyzed by flow cytometry using CELLQuest Pro. Results are expressed as relative endocytic rate (normalized Δ Mean Fluorescence Value (Δ MFV)). Δ MFV=MFV of DC exposed to FITC-dextran at 37° C.−MFV of DC exposed to FITC-dextran at 4° C. Δ MFV=(ΔMFVsequence/ΔMFVcontrol)×100.

Substance	Percentage of DC showing a FCS > 500 units and a SSC > 400 units (Human dendritic cells [1]; DC isolated from individual A)	Percentage of DC showing a FCS > 500 units and a SSC > 400 units (Human dendritic cells [1]; DC isolated from individual B)	Percentage of DC showing a FCS > 500 units and a SSC > 400 units (Human dendritic cells [1]; DC isolated from individual C)	IL-12 production by DC (fold increase compared to untreated DC) (Human dendritic cells [2]; DC isolated from individual A)	IL-12 production by DC (fold increase compared to untreated DC) (Human dendritic cells [2]; DC isolated from individual B)	IL-12 production by DC (fold increase compared to untreated DC) (Human dendritic cells [2]; DC isolated from individual C)	IFN-gamma production by DC (fold increase compared to untreated DC) (Human dendritic cells [3]; DC isolated from individual A)	IFN-gamma production by DC (fold increase compared to untreated DC) (Human dendritic cells [3]; DC isolated from individual B)	IFN-gamma production by DC (fold increase compared to untreated DC) (Human dendritic cells [3]; DC isolated from individual C)	The percentage of CD40^hi DC following treatment (Human dendritic cells [4]; DC from individual B)	The percentage of CD40^hi DC following treatment (Human dendritic cells [4]; DC from individual C)	The percentage of CD80^hi DC following treatment (Human dendritic cells [5]; DC from individual B)	The percentage of CD80^hi DC following treatment (Human dendritic cells [5]; DC from individual C)	The percentage of CD86^hi DC following treatment (Human dendritic cells [6]; DC from individual B)	The percentage of CD86^hi DC following treatment (Human dendritic cells [6]; DC from individual C)	The percentage of MHC-II^hi DC following treatment (Human dendritic cells [7])	Relative endocytic rate (normalized Δ MFV) (Human dendritic cells [8])
5′GGGTGG3′ [N3A]	8%	15%	31%	1.0 fold	1.0 fold	1.0 fold	1.0 fold	1.0 fold	1.0 fold	36** %	20%	12%	18%	16%	37** %	23%	156
5′GGGAGG3′ [N6B] (DNA, backbone not given here; further chemistry not fully specified)	4%	17%	36%	1.3 fold	1.4 fold	4.1 fold	1.1 fold	1.0 fold	1.1 fold	28** %	15%	4%	4%	15%	33%	27%	23
5′GGGTGG3′ [N3B]	28%	25%	28%	5.2 fold	17.3 fold	14.4 fold	2.0 fold	4.5 fold	1.3 fold	33** %	14%	5%	3%	30** %	39** %	25%	211
5′GGGAGG3′ [N6A] (unmodified DNA)	9%	22%	21%	1.0 fold	1.0 fold	1.0 fold	1.0 fold	1.0 fold	1.0 fold	35** %	15%	15%	17%	24** %	18%	25%	–
